EC50 data for 15 molecules are collected here from US8846739B2, “TGR5 agonists” (Exelixis Patent Company LLC, priority 2009, dated 2014).

Test [1] has as its target T1, h-TGR5 (Homo sapiens, UniProt Q8TDU6).
T1 sequence (Q8TDU6 1-330): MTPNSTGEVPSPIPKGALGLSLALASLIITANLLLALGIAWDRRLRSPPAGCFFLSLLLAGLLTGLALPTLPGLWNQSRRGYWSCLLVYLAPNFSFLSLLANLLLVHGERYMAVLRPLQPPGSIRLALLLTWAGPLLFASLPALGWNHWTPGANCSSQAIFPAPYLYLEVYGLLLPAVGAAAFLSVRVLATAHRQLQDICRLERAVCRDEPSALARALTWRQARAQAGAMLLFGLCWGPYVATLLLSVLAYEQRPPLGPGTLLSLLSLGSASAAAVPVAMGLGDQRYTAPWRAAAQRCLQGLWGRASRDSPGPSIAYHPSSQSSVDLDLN
In words: TGR5 cAMP Assay using Cisbio cAMP Dynamic 2 htrf assay kit. It is filed as cell-based. As to conditions: hTGR5CRE-luc HEK 293 cells. On the procedure: Compounds were diluted in DPBS with 5% DMSO (8-point serial dilution by half logs) in a 96-well plate and 1 μL was transferred to a 384-well assay plate in quadruplicate. The d2-cAMP and anti-cAMP Ab-cryptate stock solution were prepared as per the instructions in the Cisbio™ (Bedford, Mass.) kit. Cells (hTGR5CRE-luc HEK 293 and mTGR5CRE-luc HEK 293) were harvested using cell dissociation buffer and resuspended in DPBS. Cells were adjusted to 0.44×10^6 cells/ml followed by addition of IBMX to a final concentration of 0.5 mM. The cells were then mixed with d2-cAMP solution (7.1 mL cells+100 ul d2-cAMP) and 4000 cells (9 μL) were transferred to each well of the 384-well assay plate. Cells without d2-cAMP were added to eight wells as a negative control. The plate was covered and incubated at room temp for 30 min. Then 10 μL of Ab-cryptate solution was added to each well of the assay plate and incubated for 1 hr. The plate was read on an EnVision™ plate reader (Perkin-Elmer, Waltham, Mass.) and the DeltaF value was calculated as per the instructions in the Cisbio™ kit.
(§1) In the following tables, ECso values determined according to the TGR5 cAMP Assay are noted (cAMP); EC50 values determined according to the TGR5/CRE-Luciferiase Assay are noted (CRE-Luc).

The target in test [2] is T2, human TGR5 (h-TGR5) (Homo sapiens, UniProt Q8TDU6).
T2 sequence (Q8TDU6 1-330): T1 sequence (Q8TDU6 1-330)
In words: TGR5/CRE-Luciferase Assay. The conditions noted are these: HEK 293 hTGR5/CRE-Luc cells, 6 hours incubation, read-out: CRE-Luc Agonist (EC50). It is filed as cell-based. On the procedure:
HEK 293 cells stably expressing human TGR5 (h-TGR5) or mouse TGR5 (m-TGR5) were generated from HEK 293 CRE-Luciferase cells. The day before the assay, HEK 293 hTGR5/CRE-Luc cells were plated in DMEM in a 384 well assay plate at a density of 25 k cells/45 μL per well and grown for 18-20 hours. Compounds were serially diluted in DMEM containing 5% DMSO and 5 µL of compound or media alone was transferred to each well and plates were incubated for 6 hours. Following incubation, 30 μL of lysis/luciferase buffer was added to each well. The luciferase activity was then measured on the EnVision™ plate reader and the dose response data was analyzed using ActivityBase.
as §1

The EC50 is the concentration at which the effect is half-maximal. For the molecule `COc1cc(C(C)(C)c2cnc(SCc3c(F)cc(C(=O)NC4CC[N+](C)(CC(=O)O)CC4)cc3Cl)n2-c2ccc(F)cc2)ccc1Cl` (stereo not drawn) [Example 3, 1-(Carboxymethyl)-4-(3-chloro-4-((5-(2-(4-chloro-3-methoxyphenyl)propan-2-yl)-1-(4-fluorophenyl)-1H-imidazol-2-ylthio)methyl)-5-fluorobenzamido)-1-methyl-piperidinium 2,2,2-trifluoroacetate], the EC50 in test [1] and in test [2] was less than 100 nM each time.

Consider `COc1cc(C(C)(C)c2cnc(SCc3c(F)cc(C(=O)N[C@@H]4CCC[N+](C)(C)C4)cc3Cl)n2-c2ccc(F)cc2)ccc1Cl` [Example 2g, (3R)-3-({[3-chloro-4-({[5-{1-[4-chloro-3-(methyloxy)phenyl]-1-methylethyl}-1-(4-fluorophenyl)-1H-imidazol-2-yl]thio}methyl)-5-fluorophenyl]carbonyl}amino)-1,1-dimethylpiperidinium], for which the EC50 in test [1] and in test [2] was less than 100 nM each time.

For the molecule `COc1cc(C(C)(C)c2cnc(SCc3c(F)cc(S(=O)(=O)N4CCC[C@@H](C[N+](C)(C)C)C4)cc3Cl)n2-c2ccc(F)cc2)ccc1F` [Compound 11u, [(3S)-1-{[3-chloro-5-fluoro-4-({[5-{1-[4-fluoro-3-(methyloxy)phenyl]-1-methylethyl}-1-(4-fluorophenyl)-1H-imidazol-2-yl]thio}methyl)phenyl]sulfonyl}piperidin-3-yl]-N,N,N-trimethylmethanaminium], the EC50 in test [1] and in test [2] was less than 100 nM in each case.

Regarding `COc1cc(C(C)(C)c2cnc(SCc3c(F)cc(S(=O)(=O)N(CCC[N+](C)(C)C)[C@H](C)C(=O)O)cc3Cl)n2-c2ccc(F)cc2)ccc1Cl` [Compound 14y, 3-([(1R)-1-carboxyethyl]{[3-chloro-4-({[5-{1-[4-chloro-3-(methyloxy)phenyl]-1-methylethyl}-1-(4-fluorophenyl)-1H-imidazol-2-yl]thio}methyl)-5-fluorophenyl]sulfonyl}amino)-N,N,N-trimethylpropan-1-aminium], the half-maximal effective concentration (EC50) in test [1] and in test [2] was less than 100 nM in each case.

For the molecule `COc1cc(C(C)(C)c2cnc(SCc3c(F)cc(CCCC[N+](C)(C)C)cc3F)n2-c2ccc(F)cc2)ccc1Cl` [Compound 19e, 4-(4-((5-(2-(4-chloro-3-methoxyphenyl)propan-2-yl)-1-(4-fluorophenyl)-1H-imidazol-2-ylthio)methyl)-3,5-difluorophenyl)-N,N,N-trimethylbutan-1-aminium 2,2,2-trifluoroacetate], the EC50 in test [1] and in test [2] was less than 100 nM throughout.

On to `COc1cc(C(C)(C)c2cnc(SCc3c(F)cc(S(=O)(=O)N4CC[N+](C)(C)CC4)cc3Cl)n2-c2ccc(F)cc2)ccc1Cl` [Compound 11k, 4-{[3-chloro-4-({[5-{1-[4-chloro-3-(methyloxy)phenyl]-1-methylethyl}-1-(4-fluorophenyl)-1H-imidazol-2-yl]thio}methyl)-5-fluorophenyl]sulfonyl}-1,1-dimethylpiperazin-1-ium], for which the EC50 in test [1] and in test [2] was less than 100 nM in each case.

For the molecule `COc1cc(-n2c(C(C)(C)c3ccc4onc(N)c4c3)cnc2SCc2c(F)cc(C(=O)N[C@H]3CC[N+](C)(C)C3)cc2F)ccc1F` [Example 2k, (3S)-3-[({4-[({5-[1-(3-amino-1,2-benzisoxazol-5-yl)-1-methylethyl]-1-[4-fluoro-3-(methyloxy)phenyl]-1H-imidazol-2-yl}thio)methyl]-3,5-difluorophenyl}carbonyl)amino]-1,1-dimethylpyrrolidinium], the concentration giving a half-maximal response (EC50) in test [1] and in test [2] was less than 100 nM each time.

With `COc1cc(C(C)(C)c2cnc(CCc3c(F)cc(S(=O)(=O)N(C)[C@@H](CCCC[N+](C)(C)C)C(=O)O)cc3Cl)n2-c2ccc(F)cc2)ccc1Cl` [Compound 17o, (S)-5-carboxy-5-(3-chloro-4-(2-(5-(2-(4-chloro-3-methoxyphenyl)propan-2-yl)-1-(4-fluorophenyl)-1H-imidazol-2-yl)ethyl)-5-fluoro-N-methylphenylsulfonamido)-N,N,N-trimethylpentan-1-aminium 2,2,2-trifluoroacetate], the EC50 in test [1] and in test [2] was less than 100 nM in each case.

Turning to `COc1cc(C(C)(C)c2cnc(SCc3c(F)cc(S(=O)(=O)N(C)[C@@H](CCC[N+](C)(C)C)C(=O)O)cc3Cl)n2-c2ccc(F)cc2)ccc1Cl` [Compound 17b, (S)-4-carboxy-4-(3-chloro-4-((5-(2-(4-chloro-3-methoxyphenyl)propan-2-yl)-1-(4-fluorophenyl)-1H-imidazol-2-ylthio)methyl)-5-fluoro-N-methylphenylsulfonamido)-N,N,N-trimethylbutan-1-aminium 2,2,2-trifluoroacetate], the half-maximal effective concentration (EC50) in test [1] and in test [2] was less than 100 nM each time.

For `COc1cc(C(C)(C)c2cnc(SCc3c(F)cc(S(=O)(=O)N(C)CCC[N+](C)(C)C)cc3Cl)n2-c2ccc(F)cc2)ccc1F` [Compound 12d, 3-(3-chloro-5-fluoro-4-((5-(2-(4-fluoro-3-methoxyphenyl)propan-2-yl)-1-(4-fluorophenyl)-1H-imidazol-2-ylthio)methyl)-N-methylphenylsulfonamido)-N,N,N-trimethylpropan-1-aminium 2,2,2-trifluoroacetate], the 50% effective concentration (EC50) in test [1] and in test [2] was less than 100 nM each time.

On to `COc1cc(-n2c(C(C)(C)c3ccc(Cl)c(Cl)c3)cnc2SCc2c(F)cc(S(=O)(=O)NCCC[N+](C)(C)C)cc2F)ccc1F` [Example 6e, 3-[({4-[({5-[1-(3,4-dichlorophenyl)-1-methylethyl]-1-[4-fluoro-3-(methyloxy)phenyl]-1H-imidazol-2-yl}thio)methyl]-3,5-difluorophenyl}sulfonyl)amino]-N,N,N-trimethylpropan-1-aminium], for which the EC50 in test [1] and in test [2] was less than 100 nM in each case.

Consider `COc1cc(C(C)(C)c2cnc(SCc3c(F)cc(S(=O)(=O)N(C)[C@H](CCC[N+](C)(C)C)C(=O)O)cc3Cl)n2-c2ccc(F)cc2)ccc1Cl` [Compound 17d, (R)-4-carboxy-4-(3-chloro-4-((5-(2-(4-chloro-3-methoxyphenyl)propan-2-yl)-1-(4-fluorophenyl)-1H-imidazol-2-ylthio)methyl)-5-fluoro-N-methylphenylsulfonamido)-N,N,N-trimethylbutan-1-aminium 2,2,2-trifluoroacetate], for which the EC50 in test [1] and in test [2] was less than 100 nM throughout.

Turning to `COc1cc(C(C)(C)c2cnc(SCc3c(F)cc(OCC[N+](C)(C)C)cc3F)n2-c2ccc(F)cc2)ccc1Cl` [Compound 20, 2-(4-((5-(2-(4-Chloro-3-methoxyphenyl)propan-2-yl)-1-(4-fluorophenyl)-1H-imidazol-2-ylthio)methyl)-3,5-difluorophenoxy)-N,N,N-trimethylethanaminium 2,2,2-trifluoroacetate], the EC50 in test [1] and in test [2] was less than 100 nM each time.

`COc1ccc(CN(CCC[N+](C)(C)C)S(=O)(=O)c2cc(F)c(CSc3ncc(C(C)(C)c4ccc(Cl)c(OC)c4)n3-c3ccc(F)cc3)c(F)c2)cc1` [Compound 14ae, 3-({[4-({[5-{1-[4-chloro-3-(methyloxy)phenyl]-1-methylethyl}-1-(4-fluorophenyl)-1H-imidazol-2-yl]thio}methyl)-3,5-difluorophenyl]sulfonyl}{[4-(methyloxy)phenyl]methyl}amino)-N,N,N-trimethylpropan-1-aminium]: the EC50 in test [1] was 100 to 1000 nM; in test [2] it was less than 100 nM.

With `COc1cc(C(C)(C)c2cnc(SCc3c(F)cc(S(=O)(=O)NCCC[N+](C)(C)C)cc3Cl)n2-c2ccc(F)cc2)ccc1Cl` [Example 6j, 3-({[3-chloro-4-({[5-{1-[4-chloro-3-(methyloxy)phenyl]-1-methylethyl}-1-(4-fluorophenyl)-1H-imidazol-2-yl]thio}methyl)-5-fluorophenyl]sulfonyl}amino)-N,N,N-trimethylpropan-1-aminium], the 50% effective concentration (EC50) in test [1] and in test [2] was less than 100 nM throughout.
